Laboratory results reported in patent US12415145B2, “Compositions that contain lipophilic plant material and surfactant, and related methods” (priority 2019, dated 2025).

Legend:
[1] = Solubility in high-KB amide surfactant (DMDA / Met10u)
From the text: (§1) Another example of a processing step is a step of combining a liquid that contains target compound with anti-solvent. When a target compound is contained in a liquid, e.g., an organic solvent or water (together, “solvents”), an anti-solvent may be used to reduce the capacity of the solvent to contain the target compound, thereby supersaturating the solvent with the target compound. […] The use of an antisolvent can increase the efficiency of purification of a target compound by increasing the saturation of one or more target compounds in a solvent to which the target compounds are added or present. The antisolvent occupies the binding potential of a primary solvent for a target compound, thereby reducing the ability of the primary solvent to contain (e.g., dissolve) the target compound.
As an alternative to an “oiling-out” technique followed by a crystallization step, target compound dissolved in an aqueous solution (at high temperature and alkaline pH) can be separated from the aqueous solution by causing the target compound to directly form a separate solid phase such as crystals within the solution, i.e., to “crystallize out” of the solution, without an “oiling-out” step. Depending on the composition of the aqueous solution, e.g., if the aqueous solution contains a sufficiently high concentration and purity of dissolved target compound, the target compound may be caused to form crystals directly by reducing pH and temperature of the aqueous solution. […] A method as described may include adding surfactant (e.g., ninol CAA) or an oil or a solvent or additive that encourages crystallization or alternatively, oiling out.

Solubility in water = assay type: physicochemical
From the text: The solubility of cannabinoid target compounds in water can be substantially affected by pH and by temperature. […] At a temperature of 70 degrees Celsius or higher, and pH of 10 or higher, the solubility of CBDA in water is over 20 milligrams per milliliter. Conversely, at a temperature of 4 degrees Celsius or lower and pH 4 of or lower, the solubility of CBDA in water is below 20 micrograms per milliliter. Consequently, a process of washing a plant extract composition that contains CBDA with acidified water having a low temperature can be effective to remove hydrophilic components from the plant extract composition, without removing much CBDA from the plant extract composition.

[2] = Solubility in mineral oil; settings: under certain conditions
From the text: as §1

[3] = Thermal stability (decarboxylation); assay type: physicochemical; settings: saturated solution of CBDA in Met10u
Experimental: A saturated solution of CBDA in Met10u is prepared at 30C or preferably at 60C or higher, up to 100C or higher but below 130C. At a temperatures that is at least 130C, CBDA begins to lose its carboxylic moiety (decarboxylation) and become CBD. At temperatures above 130C CBD, not CBDA, could be separated if the desired end product is CBD.

| SMILES | fraction of dissolved water in the high KB surfactant ([1]; water dissolved in surfactant of plant extract composition) [%] | solubility of CBDA in water (Solubility in water; temperature of 4 degrees Celsius or lower, pH 4 or lower) | solubility of CBDA in water (Solubility in water; temperature of 70 degrees Celsius or higher, pH of 10 or higher) | solubility of CBDA in Met10u ([1]; at 60C) [%] | solubility in DMDA ([1]; at 70C) | solubility of CBDA in Met10u ([1]; at OC) [%] | solubility in mineral oil [2] | temperature at which CBDA begins to lose its carboxylic moiety (decarboxylation) and become CBD [3] |
| --- | --- | --- | --- | --- | --- | --- | --- | --- |
| C=CCCCCCCCC(=O)N(C)C [STEPOSOL™ MET-10U, N, N-dimethyl 9-decenamide] | 15 | – | – | – | – | – | – | – |
| C=C(C)[C@@H]1CCC(C)=C[C@H]1c1c(O)cc(CCCCC)c(C(=O)O)c1O [CBDA] | – | below 20 micrograms per milliliter | over 20 milligrams per milliliter | 100 | over 1000 mg/ml | 1 | about 6 mg/ml | at least 130 C |
